Laboratory results reported in patent US20060141620A1, “System and method for forming a cardiac tissue construct” (The Regents of the University of Michigan, priority 2004, published 2006).

How the values were obtained:
[1] = test system: cardioids; conditions: prior publication US 2004/0132184; cited from earlier work
[2] = test system: cardiac tissue constructs; assay: Inotropic response to ionic calcium (force vs calcium concentration of the bath); assay type: cell-based, rat; conditions: explanted constructs, calcium reintroduced after EGTA removal
Experimental: The effect of the addition of exogenous calcium on contractility was investigated in the constructs according to the present invention. First, CM in the bath was replaced with calcium-free DMEM (Invitrogen). Known volumes of 100 mM ethylene glycol-bis(2-aminoethylether)-N,N,N′,N′-tetraacetic acid (EGTA) were then added to the bath to bind residual stores of calcium in the constructs. At each incremental addition of EGTA, twitch stimulation was applied and the force of contraction was measured. Removal of calcium was considered to be complete when the force of contraction was not detectable and no further EGTA was added. At this point, the calcium-free DMEM in the bath was aspirated and the construct was washed 3 times with fresh calcium-free DMEM. Known volumes of 100 mM calcium were then added and stimulated contraction forces were re-evaluated with each addition. This process was repeated until there was no further increase in the active force with the addition of calcium. The relationship of calcium concentration of the bath to force of contraction was then plotted.
The pCa1/2 of mammalian cardiac tissue has been reported in the range 5.9 to 7.0 (see Bers, Excitation-Contraction Coupling and Cardiac Contractile Force, Norwell: Kluwer Academic Publishers, 2002). […] The inotropic response to external calcium is an indicator of the presence of functional calcium handling machinery.

[3] = test system: cardiac tissue constructs
Experimental: Turning now to FIG. 7, the response to epinephrine was studied in four constructs according to the present invention by adding known concentrations of epinephrine to the CM, with the constructs still attached to the force transducer. […] The concentration of epinephrine was calculated based on the typical dosage given to an adult for cardiac resuscitation. The spontaneous contractility of the constructs was recorded for a period of 5 minutes after the addition of epinephrine.

Structure (SMILES) | response of cardioids [1] | pCa1/2 [2] | duration of rapid contraction pattern (resembling tachyarrhythmia) ([3]; 0.2 μg/ml) | effect on spontaneous contractility ([3]; 0.2 μg/ml in culture bath, four constructs)
[Ca+2] [calcium] | positive inotropy | 3.04 |  | 
CNC[C@H](O)c1ccc(O)c(O)c1 [epinephrine] | positive chronotropy |  | 60 to 90 s | re-initiated spontaneous contractions
